Experiment [1] addresses T1, E. coli pantothenate kinase (PanK or coaA enzyme) (Escherichia coli, UniProt P0A6I3).
T1 construct: made in house
T1 sequence (P0A6I3 1-316): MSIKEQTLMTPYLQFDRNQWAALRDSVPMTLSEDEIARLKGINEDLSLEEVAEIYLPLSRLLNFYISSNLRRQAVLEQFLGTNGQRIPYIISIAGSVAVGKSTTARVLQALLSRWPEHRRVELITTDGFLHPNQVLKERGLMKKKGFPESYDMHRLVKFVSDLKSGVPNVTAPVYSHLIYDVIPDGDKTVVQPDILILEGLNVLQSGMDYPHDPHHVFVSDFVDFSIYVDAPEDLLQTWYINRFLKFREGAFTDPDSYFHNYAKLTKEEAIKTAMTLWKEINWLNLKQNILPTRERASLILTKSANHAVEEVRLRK
Kind of experiment: PanK enzyme assay (Michaelis-Menten kinetics). The settings on record: transformation by PanK; 25° C., Tris-HCl pH 7.6; triplicate. The format is biochemical. Here is the method:
PanK enzyme assay. The E. coli pantothenate kinase (PanK or coaA enzyme) was expressed and purified as previously described. Enzyme activity was measured as described in the literature [Strauss E, Begley T P J Biol Chem, 2002, 277:48205-48209]. This assay couples the production of ADP to the consumption of NADH through the activity of pyruvate kinase and lactic dehydrogenase. The decrease of NADH concentration was monitored at 340 nm. Reactions were performed at 25° C. in an Agilent 8453 UV-Vis spectrophotometer coupled to an Agilent 89090A Peltier temperature controller. Kinetic parameters were determined by fitting the rate data into the Michaelis-Menten equation using Prism 4.0 (GraphPad). Each reaction mixture (500 μL) contained ATP (1.5 mM), NADH (0.3 mM), phosphoenolpyruvate (0.5 mM), MgCl2 (10 mM), KCl (20 mM), pyruvate kinase (5 units), lactic dehydrogenase (5 units), and PanK (5 μg, 278 nM) in Tris-HCl buffer (50 mM, pH 7.6). The reaction was initiated by addition of the desired substrate (10-160 μM). All data points are from triplicate experiments.

A further experiment relates to PanK, PPAT and DPCK. Kind of experiment: Biosynthetic in vitro assay with a mixture of PanK, PPAT and DPCK enzymes. Type of experiment: biochemical. The settings on record: substrate 5.0 mM, 3 hours at room temperature; HPLC, approximate ± 5%, duplicate. The protocol: Biosynthetic in vitro assay with a mixture of PanK, PPAT and DPCK enzymes. The E. coli enzymes pantothenate kinase (PanK or coaA enzyme), phosphopantetheine adenylyltransferase (PPAT or coaD enzyme), and dephosphocoenzyme A kinase (DPCK or coaE enzyme) were expressed and purified as previously described [Geerlof A, Lewendon A, Shaw W V J Biol Chem 1999, 274:27105-27111]. Each reaction mixture (500 μL) contained ATP (5.0 mM), KCl (20 mM), MgCl2 (10 mM), DTT (2.0 mM), PanK (5 μg, 278 nM), PPAT (5 μg, 500 nM), DPCK (5 μg, 454 nM) in Tris-Cl Buffer (50 mM, pH 7.6). The reaction was initiated with the addition of pantetheine (5.0 mM) for comparison, water as a negative control, or compounds 3a-e (5.0 mM). Reactions were incubated for 3 hours at room temperature and then stopped by heating the mixture to 95° C. for 5 min. The precipitated protein was removed by centrifugation (13,000 rpm for 5 min) and the supernatant was analyzed by LC/MS. Reversed-phase analytical HPLC was performed with an analytical 4.60×250 mm, SYNERGI 4p Hydro-RP 80A (Phenomenex, Torrance, Calif.) column coupled to an Agilent 6120 Quadrupole LC/MS system for ESI-MS analysis. The HPLC conditions had the sample eluted at a flow rate of 0.5 mL min^−1 using a combination of mobile phase A (H2O) and mobile phase B (acetonitrile), Elution conditions are as follows: isocratic 1% phase B from 0-3 min; followed by the following linear gradients of phase B: 1-10% from 3-5 min; 10-15% from 5-10 min; 15-30% from 10-13 min; an finally isocratic phase B at 30% from 13-26 min. The detector was set to 214 nm. These experiments were run in duplicate.

Experiment [2] concerns Enterococcus faecium ATCC 19434 which expresses AAC(6′)-li naturally. Kind of experiment: Checkerboard assay, potentiation of kanamycin A on a resistant strain. The format is cell-based. Conditions: for effect on the MIC50 of kanamycin A: compound 512 μg/ml combined with kanamycin A, compared to kanamycin A alone. The protocol: General biological methods. Enterococcus faecium ATCC 19434, Staphylococcus aureus ATCC 29213 and 43300, Acinetobacter baumannii ATCC 19606, Pseudomonas aeruginosa ATCC 27853, Klebsiella penumoniae ATCC 13883, and Escherichia coli ATCC 25922 and 11775 were all purchased from Cedarlane (Burlington, ON). E. faecium was grown in Difco brain heart infusion media (BD, Mississauga, ON), S. aureus and P. aeruginosa were grown in Trypticase soy media (BD, Mississauga, ON), and E. coli, A. baumannii, and K. pneumoniae were grown in Nutrient media (BD, Mississauga, ON). Antibacterial tests were performed using Falcon™ Black with Clear Bottom 96-well Microtest™ Optilux plates (BD, Mississauga, ON).
(§1) Checkerboard assay to determine the synergistic activity of compounds 3a-f with kanamycin A or tobramycin on a resistant strain. A two dimensional checkerboard MIC assay was carried out as previously described [Gao F, Yan X, Shakya T, Baettig O M, Ait-Mohand-Brunet S, Berghuis A M, Wright G D, Auclair K; J Med Chem, 2006, 49:5273-5281] to observe for the potentiation activity of compounds 3a-f towards the antibacterial activity of kanamycin A or tobramycin against Enterococcus faecium ATCC 19434 which expresses AAC(6′)-li naturally, or an E. coli strain engineered to express AAC(6)-li. Compounds 3a-f were diluted by 2-fold sequential dilutions to create a gradient from 32 to 512 μg/mL while the concentrations used for kanamycin A or tobramycin were 0, 10, 20, 40, 50, 100, 150, 200, 250, and 300 μg/mL. The cultures were grown at 37° C. for 16 h in 96-well plates, and then monitored for optical density at 600 nm using a Spectramax 190 microplate reader (Molecular Devices, Sunnyvale, Calif.). Data was normalized against a positive growth control and reported as a percentage of bacterial cell growth. All data points are from quadruplicate experiments.

Experiment [3] concerns E. coli (BL21) harbouring AAC(6′)-li resistance gene in pET-22b(+) vector. Kind of experiment: Checkerboard assay, potentiation of tobramycin on engineered E. coli. The format is cell-based. Conditions: tobramycin combined with compound; E. coli engineered to express AAC(6′)-li. Here is the method: as §1
The target in experiment [4] is T1, E. coli pantothenate kinase (PanK or coaA enzyme). The settings on record: natural substrates of PanK; literature values (footnotes a, b); cited from earlier work.

Molecules are shown by their SMILES. Where two headings read alike, the source gives them in different places.

Broadly, the Km is the substrate concentration at which the rate is half of its maximum. For `CC(C)(CO)[C@@H](O)C(=O)NCCC(=O)NCCSCC(=O)NC[C@H]1O[C@H](O[C@H]2[C@H](O)[C@@H](O)[C@H](N)C[C@@H]2N)[C@H](N)[C@@H](O)[C@@H]1O` [Compound 3a, Neamine 6′-N—(R)-(3-((2-((2-amino-2-oxoethyl)thio)ethyl)amino)-3-oxopropyl)-2,4-dihydroxyl-3,3-dimethylbutanamide], the Km in experiment [1] is no less than 500 µM. In addition, in the experiment with PanK, PPAT and DPCK, the “Compounds detected by LC-MS: 3a-e (starting material), relative percentage” value turned out to be 70%; the “Compounds detected by LC-MS: 6a-e, relative percentage” value amounted to 5%; the “Compounds detected by LC-MS: 7a-e, relative percentage” value was 25%. In addition, the “effect on the MIC50 of kanamycin A” value in experiment [2] is given as “negligible effect”.
For `CC(C)(CO)[C@@H](O)C(=O)NCCC(=O)NCCSCCC(=O)NC[C@H]1O[C@H](O[C@H]2[C@H](O)[C@@H](O)[C@H](N)C[C@@H]2N)[C@H](N)[C@@H](O)[C@@H]1O` [Compound 3b, Neamine 6′-N—(R)-(3-((2-((2-amino-2-oxopropyl)thio)ethyl)amino)-3-oxopropyl)-2,4-dihydroxyl-3,3-dimethylbutanamide], in the experiment on PanK, PPAT and DPCK, the “Compounds detected by LC-MS: 2a-e, relative percentage” value stood at 10%; the “Compounds detected by LC-MS: 6a-e, relative percentage” value was found to be 20%; the “Compounds detected by LC-MS: 7a-e, relative percentage” value was 70%.
As to `CC(C)(CO)[C@@H](O)C(=O)NCCC(=O)NCCSCCCC(=O)NC[C@H]1O[C@H](O[C@H]2[C@H](O)[C@@H](O)[C@H](N)C[C@@H]2N)[C@H](N)[C@@H](O)[C@@H]1O` [Compound 3c, Neamine 6′-N—(R)-(3-((2-((2-amino-2-oxobutyl)thio)ethyl)amino)-3-oxopropyl)-2,4-dihydroxyl-3,3-dimethylbutanamide], in the experiment with PanK, PPAT and DPCK, the “Compounds detected by LC-MS: 2a-e, relative percentage” value was 55%; the “Compounds detected by LC-MS: 6a-e, relative percentage” value came out at 5%; the “Compounds detected by LC-MS: 7a-e, relative percentage” value is on record as 40%. In addition, the “dose dependence of the potentiation of kanamycin A” value in experiment [2] (compound 32 to 512 μg/mL with kanamycin A) was “dose-dependent effect”.
In the case of `CC(C)(CO)[C@@H](O)C(=O)NCCC(=O)NCCSCCCCC(=O)NC[C@H]1O[C@H](O[C@H]2[C@H](O)[C@@H](O)[C@H](N)C[C@@H]2N)[C@H](N)[C@@H](O)[C@@H]1O` [Compound 3d, Neamine 6′-N—(R)-(3-((2-((2-amino-2-oxopentyl)thio)ethyl)amino)-3-oxopropyl)-2,4-dihydroxyl-3,3-dimethylbutanamide], in the experiment on PanK, PPAT and DPCK, the “Compounds detected by LC-MS: 2a-e, relative percentage” value is 90% and the “Compounds detected by LC-MS: 7a-e, relative percentage” value is reported as 10%. Further, the “effect on the MIC50 of kanamycin A” value in experiment [2] is “drop by half”. Besides, the “reduction in the MIC of tobramycin” value in experiment [3] came out at 10 fold.
Take `CC(C)(CO)[C@@H](O)C(=O)NCCC(=O)NCCSCCCCCC(=O)NC[C@H]1O[C@H](O[C@H]2[C@H](O)[C@@H](O)[C@H](N)C[C@@H]2N)[C@H](N)[C@@H](O)[C@@H]1O` [Compound 3e, Neamine 6′-N—(R)-(3-((2-((2-amino-2-oxohexyl)thio)ethyl)amino)-3-oxopropyl)-2,4-dihydroxyl-3,3-dimethylbutanamide]: in the experiment on PanK, PPAT and DPCK, the “Compounds detected by LC-MS: 2a-e, relative percentage” value is reported as 80% and the “Compounds detected by LC-MS: 7a-e, relative percentage” value was found to be 20%. Besides, the “effect on the MIC50 of kanamycin A” value in experiment [2] was “drop by half”.
Consider `CC(C)(CO)[C@@H](O)C(=O)NCCC(=O)NCCS` [Pantetheine], for which the kcat in experiment [4] was 0.32 ± 0.02^b sec^−1.
Consider `CC(C)(CO)[C@@H](O)C(=O)NCCC(=O)O` [Pantothenic acid], for which, in experiment [4], the Michaelis constant (Km) was 17 ± 2 µM and the kcat is recorded as 1.07 ± 0.04^a sec^−1.
Turning to `NC[C@H]1O[C@H](O[C@H]2[C@H](O)[C@@H](O[C@H]3O[C@H](CO)[C@@H](O)[C@H](N)[C@H]3O)[C@H](N)C[C@@H]2N)[C@H](O)[C@@H](O)[C@@H]1O` [kanamycin A, reference compound], the “MIC50 of kanamycin A (minimum concentration causing a 50% growth inhibition)” value in experiment [2] (kanamycin A alone, in the absence of compounds 3a-e) was roughly 125 mg/L.

The record behind these values is US9127035B2, “Compounds for use in the treatment of bacterial infection” (THE ROYAL INSTITUTION FOR THE ADVANCEMENT OF …, priority 2011, dated 2015).
